This is an account of results in patent EP4653444A1, “FUSED TRICYCLIC COMPOUND AS KINASE INHIBITOR” (Hangzhou Innogate Pharma Co., Ltd., priority 2023, dated 2024).

Broadly, the IC50 is the point on the concentration scale where inhibition reaches its midpoint. What is called AUC(0-t) is the area under the concentration-time curve up to a stated or last time point. High values mean more exposure, low ones less exposure. By Cmax is commonly meant the highest concentration seen after dosing. For orientation: Tmax means the time from dosing to the highest level. Usually half-life stands for how long it takes for the measured level to halve.

In data set [1] the target is T1, ULK1 kinase (Homo sapiens, UniProt O75385).
T1 sequence (O75385 1-1050): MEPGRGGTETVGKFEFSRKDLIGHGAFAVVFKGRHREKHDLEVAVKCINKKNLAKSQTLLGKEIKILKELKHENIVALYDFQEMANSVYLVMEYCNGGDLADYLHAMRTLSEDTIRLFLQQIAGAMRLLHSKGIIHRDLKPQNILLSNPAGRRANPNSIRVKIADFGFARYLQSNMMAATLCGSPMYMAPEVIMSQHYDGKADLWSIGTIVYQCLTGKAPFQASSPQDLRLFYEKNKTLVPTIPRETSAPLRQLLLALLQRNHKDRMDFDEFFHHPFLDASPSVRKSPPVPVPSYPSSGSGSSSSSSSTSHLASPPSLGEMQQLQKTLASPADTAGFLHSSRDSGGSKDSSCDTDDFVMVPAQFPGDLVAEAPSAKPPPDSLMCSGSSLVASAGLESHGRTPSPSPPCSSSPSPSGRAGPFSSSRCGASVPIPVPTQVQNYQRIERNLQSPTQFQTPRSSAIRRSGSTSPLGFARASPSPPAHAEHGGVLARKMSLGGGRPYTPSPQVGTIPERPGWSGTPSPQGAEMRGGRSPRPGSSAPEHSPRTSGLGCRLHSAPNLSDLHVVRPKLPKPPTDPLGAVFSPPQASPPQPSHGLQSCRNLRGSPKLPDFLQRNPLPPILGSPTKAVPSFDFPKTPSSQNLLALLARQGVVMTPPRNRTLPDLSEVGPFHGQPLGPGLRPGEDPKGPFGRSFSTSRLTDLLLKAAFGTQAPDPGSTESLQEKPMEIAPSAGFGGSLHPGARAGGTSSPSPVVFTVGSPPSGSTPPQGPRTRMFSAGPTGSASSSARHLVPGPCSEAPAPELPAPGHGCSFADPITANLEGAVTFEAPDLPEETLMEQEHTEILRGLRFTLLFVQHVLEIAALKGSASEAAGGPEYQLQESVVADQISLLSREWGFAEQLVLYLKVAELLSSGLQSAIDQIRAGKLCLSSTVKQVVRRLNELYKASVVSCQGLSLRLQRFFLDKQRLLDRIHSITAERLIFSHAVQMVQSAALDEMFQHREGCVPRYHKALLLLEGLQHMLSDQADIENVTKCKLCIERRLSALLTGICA
The experiment in a line: ULK kinase activity inhibition assay (ADP-Glo). It counts as biochemical. The procedure: (§1) The ADP-Glo method was used to evaluate the inhibitory activity of the compounds against ULK1 and ULK2 kinases. Prepare 1× kinase reaction buffer (final working concentrations: HEPES 50 mM, MgCl2 10 mM, Brij35 0.01%, EGTA 1 mM, DTT 2 mM). Prepare 2× kinase and […] substrate solutions: ULK1 kinase at 0.5 nM; substrate mix containing ATP at 100 µM and MBP at 0.1 mg/mL. ULK2 kinase at 0.15 nM; substrate mix containing ATP at 6 µM and MBP at 0.1 mg/mL. Compounds were serially diluted in DMSO and shaken on a shaker for 20 minutes. Prepare 2× kinase using 1× kinase reaction buffer. Transfer 20 nL of compound into a 384-well plate. Add 2 µL of kinase to each well of the reaction plate. Seal the plate with sealing film, centrifuge at 1000 rpm for 60 seconds, and incubate at 25°C for 10 minutes. Prepare 2× ATP & MBP mixture using 1× kinase reaction buffer and add 2 µL to each well. Seal the plate, centrifuge at 1000 rpm for 60 seconds, and incubate at 25°C for 60 minutes. Add 4 µL ADP-Glo reagent to the 384-well plate, centrifuge at 1000 rpm for 1 minute, and incubate at 25°C for 40 minutes. Then, add 8 µL Detection Reagent, centrifuge at 1000 rpm for 1 minute, and incubate at 25°C for 40 minutes. Read the RLU (Relative Luminescence Unit) signal using a BMG plate reader to indicate kinase activity. Inhibition rate was calculated as: % Inhibition = 100% - [(Compound - Positive Control)/(Negative Control - Positive Control)] × 100%. IC50 values (half-maximal inhibitory concentration) were calculated by nonlinear regression using GraphPad Prism 7.0. Y = Bottom + (Top - Bottom)/(1 + 10^((LogIC50 - X) × Hill Slope)), where X is the log of compound concentration and Y is the % inhibition.
(ADP-Glo first removes unused ATP, then detects ADP through luciferase.)

In data set [2] the target is T2, ULK2 kinase (Homo sapiens, UniProt Q8IYT8).
T2 sequence (Q8IYT8 1-1036): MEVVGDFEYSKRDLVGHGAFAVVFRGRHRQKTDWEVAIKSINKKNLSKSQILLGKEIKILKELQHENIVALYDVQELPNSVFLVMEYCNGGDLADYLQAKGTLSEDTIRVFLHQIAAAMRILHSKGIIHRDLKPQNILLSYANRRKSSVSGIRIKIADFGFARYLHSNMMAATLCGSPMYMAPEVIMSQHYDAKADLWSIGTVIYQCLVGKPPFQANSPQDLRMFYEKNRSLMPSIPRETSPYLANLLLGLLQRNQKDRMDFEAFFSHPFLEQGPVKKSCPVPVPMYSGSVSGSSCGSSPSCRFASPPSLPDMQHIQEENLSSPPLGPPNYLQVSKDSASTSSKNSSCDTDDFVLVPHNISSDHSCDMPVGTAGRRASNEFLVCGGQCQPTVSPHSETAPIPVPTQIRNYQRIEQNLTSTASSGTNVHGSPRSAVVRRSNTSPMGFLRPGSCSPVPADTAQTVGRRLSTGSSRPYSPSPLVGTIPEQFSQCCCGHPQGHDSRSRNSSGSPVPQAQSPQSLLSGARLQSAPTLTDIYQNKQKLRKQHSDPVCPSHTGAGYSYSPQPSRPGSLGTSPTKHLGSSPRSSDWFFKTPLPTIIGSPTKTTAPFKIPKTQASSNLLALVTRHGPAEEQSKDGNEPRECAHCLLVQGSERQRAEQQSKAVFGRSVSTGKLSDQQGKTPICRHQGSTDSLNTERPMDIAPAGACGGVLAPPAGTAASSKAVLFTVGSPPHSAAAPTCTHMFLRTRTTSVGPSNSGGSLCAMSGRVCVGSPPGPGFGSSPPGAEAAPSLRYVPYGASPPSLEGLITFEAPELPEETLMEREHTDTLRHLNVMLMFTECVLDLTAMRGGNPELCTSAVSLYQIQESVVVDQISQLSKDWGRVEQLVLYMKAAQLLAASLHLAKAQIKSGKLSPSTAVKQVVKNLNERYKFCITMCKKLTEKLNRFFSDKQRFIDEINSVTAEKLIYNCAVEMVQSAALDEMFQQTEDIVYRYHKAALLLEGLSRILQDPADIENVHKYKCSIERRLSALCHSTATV
Description: ULK kinase activity inhibition assay (ADP-Glo). It counts as biochemical. The procedure: as §1

Data set [3] is described as follows: Pharmacokinetic study in rats. To be noted: rat, plasma, po, 3 mg/kg.
Description: Pharmacokinetic parameters were calculated by statistical moment method using WinNonLin 8.0 software, mainly including Tmax, T1/2, Cmax and AUC0-24h.
Animals: Three male SD rats weighing 200-220 g were used. After purchase, they were housed in the laboratory animal center for 2 days before experiment. […] Blood samples were collected at scheduled time points after oral gavage.
Vehicle: 0.4% ethanol + 0.4% Tween 80 + 99.2% (0.5% methylcellulose M450). Preparation of oral gavage solution: The compound was accurately weighed and dissolved in vehicle by ultrasonication for 5 min at room temperature to prepare 0.3 mg/mL drug solution.
Single compound administration was also used to study pharmacokinetics in rats.
Blood sample collection: After oral gavage, blood samples were collected from orbital sinus at 0.25, 0.5, 1, 2, 4, 8, 10 and 24 h. 50 µL plasma was mixed with 200 µL acetonitrile (containing 2 ng/mL verapamil as internal standard). The mixture was vortexed for 3 min, then centrifuged at 20000 rcf for 10 min at 4 °C. The supernatant was analyzed by LC-MS/MS.
Standard curves were established by accurately weighing and preparing compounds at different concentrations for mass spectrometric quantification. Compound concentrations in plasma samples were determined based on standard curves to obtain concentration-time profiles. All measurement data were collected and processed by relevant software. Pharmacokinetic parameters (including Tmax, T1/2, Cmax and AUC0-24h) were calculated by statistical moment method.
Where [4] appears, read: ADP-Glo, ATP 100 µM, read-out: ULK1 (IC50).
Where [5] appears, read: ADP-Glo, ATP 6 µM, read-out: ULK2 (IC50).

Like-named read-outs stand apart in the source and are kept apart here.

For the compound `CCc1cc2c(cc1Nc1ncc(C(F)(F)F)c(NCCCN3CCOCCC3=O)n1)OC[C@H]1CNCCN21` [Compound A4R], the IC50 in data set [1] (setting [4]) was < 1 nM. Moreover, the IC50 in data set [2] (setting [5]) is < 1 nM. Also, in data set [3], the AUC(0-t) at 24 h stood at 880 ng·h/mL, the Cmax is 217 ng/mL, the Tmax is 1.2 h and the half-life was 2.1 h.

With `CCc1cc2c(cc1Nc1ncc(C(F)(F)F)c(NCCCN3CCCCC3=O)n1)OC[C@H]1CN(C3CCN(C)CC3)CCN21` [Compound A6R], the IC50 in data set [1] is < 3 nM. In addition, the IC50 in data set [2] was < 5 nM. Moreover, in data set [3], the exposure AUC(0-t) at 24 h was 1080 ng·h/mL, the peak level (Cmax) was 77.3 ng/mL, the Tmax is 6.7 h and the half-life is 8.3 h.

With `CCc1cc2c(cc1Nc1ncc(C(F)(F)F)c(NCCCN3CCCCC3=O)n1)OC[C@H]1CN(C)CCN21` [Compound A8R], in data set [1] (setting [4]), the IC50 was < 1 nM. Besides, the IC50 in data set [2] (setting [5]) was < 1 nM. For the same compound, in data set [3], the AUC(0-t) at 24 h turned out to be 685 ng·h/mL, the peak level (Cmax) was 222 ng/mL, the Tmax was 0.8 h and the half-life is 1 h.
